Data reported in patent publication US6524863B1, “High throughput HPLC method for determining Log P values” (Scynexis Chemistry & Automation, Inc., priority 1999, dated 2003).
Where two headings read alike, the source gives them in different places.

Tests used:
Isocratic HPLC Log P = conditions: for Isocratic Log P: isocratic method, no details given
Description: (§1) Isocratic data, measured at certain eluent compositions (typically as log k′x, for a given eluent composition X), can be used to calculate Log P data.

physchem [1] = assay: physchem
Description: as §1

physchem [2] = assay: physchem; remark: listed apart in the source
Protocol: (§2) An evaporated light scattering detector (Richard Scientific) and a platform LC mass spectrometer (Micromass) were used as detectors.
(§3) The mobile phase was a binary gradient of methanol/water. The stationary phase was a 4.6×50 mm column packed with 5 micron ODS-AQ. The injection size was 5 μL. The mobile phase gradient was adjusted to obtain a Log P nearly equal to the retention time on the HPLC column.
(§4) After 6.1 minutes, the column was set to re-equilibrate.
(§5) Retention times (X), shake flask log P (Y), slope and intercept from the above plot were used to calculate log P for these standards.
(§6) When log P was plotted versus the log of the capacity factor K for these standards, an following exponential curve was obtained, as shown in FIG. 3.
(§7) Using this exponential equation and HPLC retention times of these standards, Log P and Log K were calculated and compared with the retention times and literature Log P values.

[3] = Gradient HPLC Log P determination from retention time (new method)
Protocol: as §2, §3, §4, §5, §6, §7

[4] = cited from earlier work
[5] = New Method Calc. Log P Y = 1.009X + 0.029
[6] = Log P calc. by slope, calculated from Log K (capacity factor) with exponential equation Y=0.6972e^1.5966X
[7] = New Method Calc. Log P Y = 1.009X + 0.029, calculated from average gradient HPLC retention time X (ODS-AQ 4.6×50 mm, methanol/water), linear fit
[8] = shake flask Log P values (lit.), Table 2
[9] = shake flask, literature, Table 3
[10] = shake flask, literature, Table 4

Row | Compound | chromatographic logP (physchem [1]) | chromatographic logP (physchem [2]; Log P calc. by slope) | chromatographic logP (physchem [2]; [5]) | chromatographic logP (Isocratic HPLC Log P) | chromatographic logP [3, 7] | further results
1 | ClC(Cl)=C(c1ccc(Cl)cc1)c1ccc(Cl)cc1 [standard 16, DDE] |  |  |  |  |  | Isocratic Log P (Isocratic HPLC Log P): 6.28
2 | COc1ccc(C(c2ccc(OC)cc2)C(Cl)(Cl)Cl)cc1 [standard 15, methoxychlor] | 4.26 | 4.37 | 4.61 |  |  | 
3 | c1ccc2cc3ccccc3cc2c1 [standard 12, anthracene] | 4.46 | 4.27 |  |  |  | 
4 | CCCN(CCC)c1c([N+](=O)[O-])cc(C(F)(F)F)cc1[N+](=O)[O-] [standard 14, trifluralin] | 5 | 4.57 | 4.88 |  |  | 
5 | Cc1ccc(Cl)cc1 [standard 8, p-chloro toluene] | 3.57 | 3.74 | 3.74 |  |  | 
6 | Cc1ccc2cc(C)ccc2c1 [standard 11, 2,6-dimethyl napthalene] |  |  |  |  |  | Isocratic Log P (Isocratic HPLC Log P): 4.49
7 | c1ccc(-c2ccccc2)cc1 [standard 10, biphenyl] | 3.8 |  | 4.07 |  |  | Log P calc. by slope ([3]; calculated from Log K (capacity factor) with exponential equation Y=0.6972e^1.5966X): 3.98
8 | CNC(=O)c1ccccc1 [standard 3, N-methyl benzamide] |  |  |  | 0.96 | 0.68 | chromatographic logP [3, 6]: 0.75; Lit. Log P [4, 8]: 0.86; Lit. Log P [4, 9]: 0.86; Lit. Log P [4, 10]: 0.86
9 | CC(=O)c1ccccc1 [standard 6, acetophenone] |  |  |  | 2.54 | 1.94 | chromatographic logP [3, 6]: 2.22; Lit. Log P [4, 8]: 2.13; Lit. Log P [4, 9]: 2.13; Lit. Log P [4, 10]: 2.13
10 | O=c1cc[nH]c(=O)[nH]1 [standard 1, uracil] |  |  |  | -1.05 | 0.32 | 
11 | c1ccc(Sc2ccccc2)cc1 [standard 13, phenyl sulfide] |  |  |  | 4.31 | 4.33 | chromatographic logP [3, 6]: 4.17; Lit. Log P [4, 8]: 4.45; Lit. Log P [4, 9]: 4.45; Lit. Log P [4, 10]: 4.45
12 | Brc1ccccc1 [standard 7, bromobenzene] | 3.23 | 3.5 | 3.44 |  |  | 
13 | CCOP(=S)(OCC)Oc1ccc([N+](=O)[O-])cc1 [standard 9, diethyl parathion] |  |  |  |  |  | Isocratic Log P (Isocratic HPLC Log P): 3.39
14 | NC(=O)c1ccccc1 [standard 2, benzamide] |  |  |  | 0.41 | 0.56 | chromatographic logP [3, 6]: 0.58
15 | OCc1ccccc1 [standard 4, benzyl alcohol] |  |  |  | 0.96 | 0.98 | 
